Experimental data as given in paper PMC5078011, “The oleocanthal-based homovanillyl sinapate as a novel c-Met inhibitor” (Oncotarget, 2016).

Molecular target: c-Met (M1250T) (Homo sapiens, UniProt P08581, M1250T)
Test: Z'-LYTE Tyr6 peptide kinase assay, recombinant M1250T c-Met
Type: biochemical
Settings: read-out: (-)-Oleocanthal^a / IC50 (μM) ± SEM

Chain of c-Met (M1250T) (P08581 956-1390 M1250T limits assumed): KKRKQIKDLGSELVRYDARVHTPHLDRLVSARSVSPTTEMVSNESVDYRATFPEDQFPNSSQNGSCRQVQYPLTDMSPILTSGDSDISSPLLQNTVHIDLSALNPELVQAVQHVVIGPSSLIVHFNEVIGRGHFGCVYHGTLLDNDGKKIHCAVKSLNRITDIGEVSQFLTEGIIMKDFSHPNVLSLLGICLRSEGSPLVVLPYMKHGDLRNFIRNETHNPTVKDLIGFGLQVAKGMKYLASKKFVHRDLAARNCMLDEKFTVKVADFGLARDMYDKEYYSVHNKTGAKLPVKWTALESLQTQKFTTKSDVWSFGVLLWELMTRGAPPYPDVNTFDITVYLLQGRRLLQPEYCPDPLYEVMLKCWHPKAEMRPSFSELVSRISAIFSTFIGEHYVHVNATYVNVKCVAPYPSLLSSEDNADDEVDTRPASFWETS

C/C=C(/C=O)[C@@H](CC=O)CC(=O)OCCc1ccc(O)cc1 [S (−)-oleocanthal]
IC50: 3.9 µM
